The target in one data set is T1, PI3Kγ (Homo sapiens, UniProt P48736).
T1 construct: purchased Millipore Corporation 14-558-K
The data set can be described thus: PI3 Kinase HTRF assay, PI3Kγ. The data set is classed as biochemical. Conditions: 10 μM PIP2, 10 μM ATP; read-out: PI3K γ IC50. In short, it runs like this:
(§1)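 Recombinant human PI3K isoform converts 10 μM PIP2 to PIP3 with 10 μM ATP, 1 h at room temperature after 15 min compound preincubation; 2% DMSO. PIP3 read by HTRF competition with biotin-PIP3/GST-GRP1 PH domain. IC50 from 12-point curve, 20 μM to 0.1 nM, nonlinear regression.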

A further data set addresses T2, PI3Kβ (Homo sapiens, UniProt P42338).
T2 construct: purchased Millipore Corporation 14-603-K
The data set is described as follows: PI3 Kinase HTRF assay, PI3Kβ. Conditions: 10 μM PIP2, 10 μM ATP; read-out: PI3K β IC50. It counts as biochemical. In short, it runs like this:
as §1

For a further data set, the target named is T3, PI3Kδ (Homo sapiens, UniProt O00329).
T3 construct: purchased Millipore Corporation 14-604-K
T3 sequence (O00329 whole entry): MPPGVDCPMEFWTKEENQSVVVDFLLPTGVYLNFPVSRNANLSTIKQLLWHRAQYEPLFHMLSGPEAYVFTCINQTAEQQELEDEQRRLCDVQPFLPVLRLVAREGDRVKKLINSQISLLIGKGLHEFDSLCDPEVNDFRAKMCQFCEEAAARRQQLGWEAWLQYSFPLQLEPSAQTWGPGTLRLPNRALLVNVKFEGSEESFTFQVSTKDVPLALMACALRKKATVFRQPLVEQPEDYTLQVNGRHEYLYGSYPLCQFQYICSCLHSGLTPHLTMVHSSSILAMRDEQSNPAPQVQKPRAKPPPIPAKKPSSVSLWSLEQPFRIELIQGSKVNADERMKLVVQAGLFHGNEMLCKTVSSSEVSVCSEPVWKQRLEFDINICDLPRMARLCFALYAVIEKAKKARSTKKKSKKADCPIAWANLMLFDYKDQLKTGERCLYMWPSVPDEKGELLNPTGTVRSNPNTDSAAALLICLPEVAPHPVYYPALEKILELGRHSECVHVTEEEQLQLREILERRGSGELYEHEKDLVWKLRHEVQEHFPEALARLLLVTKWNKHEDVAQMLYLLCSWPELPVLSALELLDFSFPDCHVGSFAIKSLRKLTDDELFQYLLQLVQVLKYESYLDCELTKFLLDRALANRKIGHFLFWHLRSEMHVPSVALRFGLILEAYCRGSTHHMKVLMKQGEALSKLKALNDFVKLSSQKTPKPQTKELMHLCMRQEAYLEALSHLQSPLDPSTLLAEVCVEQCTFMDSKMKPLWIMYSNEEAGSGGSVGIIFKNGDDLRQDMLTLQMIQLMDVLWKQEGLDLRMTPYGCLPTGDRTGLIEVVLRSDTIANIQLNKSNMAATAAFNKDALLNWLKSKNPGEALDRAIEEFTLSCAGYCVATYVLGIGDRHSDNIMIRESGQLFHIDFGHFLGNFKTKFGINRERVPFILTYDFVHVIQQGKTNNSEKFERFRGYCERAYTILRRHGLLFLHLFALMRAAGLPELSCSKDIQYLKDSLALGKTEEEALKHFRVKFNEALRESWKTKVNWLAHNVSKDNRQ
T3 sequence (P27986 whole entry partner): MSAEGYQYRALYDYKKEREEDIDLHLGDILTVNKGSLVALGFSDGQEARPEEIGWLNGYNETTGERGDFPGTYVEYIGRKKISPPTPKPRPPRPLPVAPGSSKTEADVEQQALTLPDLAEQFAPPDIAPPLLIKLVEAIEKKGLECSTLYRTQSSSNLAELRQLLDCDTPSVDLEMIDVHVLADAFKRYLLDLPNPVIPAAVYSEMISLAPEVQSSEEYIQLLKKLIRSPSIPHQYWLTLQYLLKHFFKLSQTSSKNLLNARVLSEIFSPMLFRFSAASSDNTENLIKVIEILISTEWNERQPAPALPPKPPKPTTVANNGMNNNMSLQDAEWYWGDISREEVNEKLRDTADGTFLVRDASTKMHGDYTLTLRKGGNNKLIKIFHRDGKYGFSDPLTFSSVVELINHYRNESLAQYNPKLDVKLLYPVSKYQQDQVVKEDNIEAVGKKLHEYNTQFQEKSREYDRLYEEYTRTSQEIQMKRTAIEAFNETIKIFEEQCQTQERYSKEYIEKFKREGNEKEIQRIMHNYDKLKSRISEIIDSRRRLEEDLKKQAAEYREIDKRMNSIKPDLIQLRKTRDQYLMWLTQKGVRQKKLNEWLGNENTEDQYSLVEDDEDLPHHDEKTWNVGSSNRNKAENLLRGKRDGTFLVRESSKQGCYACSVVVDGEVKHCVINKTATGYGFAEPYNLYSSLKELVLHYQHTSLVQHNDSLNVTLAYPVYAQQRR
The data set can be described thus: PI3 Kinase HTRF assay, PI3Kδ. The data set is classed as biochemical. As to conditions: 10 μM PIP2, 10 μM ATP; read-out: PI3K δ IC50. In short, it runs like this: as §1
(In general: In TR-FRET formats the signal depends on donor and acceptor labels being close together.)

The target of another data set is T4, PI3Kα (Homo sapiens, UniProt P42336).
T4 construct: purchased Millipore Corporation 14-602-K
T4 sequence (P42336 whole entry): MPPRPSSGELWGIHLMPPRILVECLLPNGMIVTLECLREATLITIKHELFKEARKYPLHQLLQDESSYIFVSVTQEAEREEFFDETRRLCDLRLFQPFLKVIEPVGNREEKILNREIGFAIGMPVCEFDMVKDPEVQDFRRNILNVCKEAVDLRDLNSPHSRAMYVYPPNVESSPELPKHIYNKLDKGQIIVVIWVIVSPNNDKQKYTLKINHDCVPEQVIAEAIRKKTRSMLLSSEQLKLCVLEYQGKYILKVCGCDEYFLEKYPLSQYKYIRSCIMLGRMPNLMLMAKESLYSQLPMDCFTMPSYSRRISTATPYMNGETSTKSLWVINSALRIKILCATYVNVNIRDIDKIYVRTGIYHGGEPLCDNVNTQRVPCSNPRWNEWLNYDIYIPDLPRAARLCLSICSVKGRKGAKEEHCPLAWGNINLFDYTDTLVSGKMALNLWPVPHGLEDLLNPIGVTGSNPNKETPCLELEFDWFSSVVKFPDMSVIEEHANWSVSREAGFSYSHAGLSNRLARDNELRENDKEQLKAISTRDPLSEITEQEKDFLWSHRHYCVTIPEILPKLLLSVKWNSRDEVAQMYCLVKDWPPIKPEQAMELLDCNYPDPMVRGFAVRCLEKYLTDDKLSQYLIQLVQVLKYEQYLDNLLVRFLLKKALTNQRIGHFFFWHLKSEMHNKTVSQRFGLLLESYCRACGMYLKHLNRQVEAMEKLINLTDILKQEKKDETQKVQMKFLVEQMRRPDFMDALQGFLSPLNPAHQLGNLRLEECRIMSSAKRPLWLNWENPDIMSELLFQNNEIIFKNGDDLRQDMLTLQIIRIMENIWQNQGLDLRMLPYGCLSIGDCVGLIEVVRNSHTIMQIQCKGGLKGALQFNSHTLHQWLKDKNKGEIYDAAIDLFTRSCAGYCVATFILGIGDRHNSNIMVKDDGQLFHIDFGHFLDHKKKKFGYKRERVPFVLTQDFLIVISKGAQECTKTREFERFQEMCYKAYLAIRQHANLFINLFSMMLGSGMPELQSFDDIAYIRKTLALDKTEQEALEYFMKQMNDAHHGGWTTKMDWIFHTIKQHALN
T4 sequence (P27986 whole entry partner): as the sequence (P27986 whole entry partner) above
The data set can be described thus: PI3 Kinase HTRF assay, PI3Kα. The data set is classed as biochemical. As to conditions: 10 μM PIP2, 10 μM ATP; read-out: PI3K α IC50. The method in brief: as §1

For a further data set, the system named is Balb/c splenic B cells. The data set can be described thus: B cell activation and proliferation assay (Alamar Blue). As to conditions: Mus musculus, read-out: B cell prolif. IC50. It counts as cell-based. The method in brief:
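Purified cells (50,000/well, RPMI + 10% FBS) were preincubated 30 min at 37 °C with compound (0.2% DMSO final). Stimulation was with a cocktail containing either 10 ug/ml LPS or 5 ug/ml anti-mouse IgM F(ab′)2 plus 2 ng/ml mouse IL4, for 72 h. Viability by 5 h Alamar Blue reduction (560Ex/590Em); IC50 or EC50 fitted.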

Another data set relates to lupus symptoms. As to conditions: B6.Sle1z.Sle3z model; cited from earlier work.
For data set [1] the following is noted: PBS pH 7.4, 37° C., 24 hours, 5 μM; cited from earlier work.
For data set [2] the following is noted: control or reference compounds, 5 μM; cited from earlier work.

Molecules are shown by their SMILES. pIC50: −log10 of the molar value.

T2 sequence (P42338 whole entry): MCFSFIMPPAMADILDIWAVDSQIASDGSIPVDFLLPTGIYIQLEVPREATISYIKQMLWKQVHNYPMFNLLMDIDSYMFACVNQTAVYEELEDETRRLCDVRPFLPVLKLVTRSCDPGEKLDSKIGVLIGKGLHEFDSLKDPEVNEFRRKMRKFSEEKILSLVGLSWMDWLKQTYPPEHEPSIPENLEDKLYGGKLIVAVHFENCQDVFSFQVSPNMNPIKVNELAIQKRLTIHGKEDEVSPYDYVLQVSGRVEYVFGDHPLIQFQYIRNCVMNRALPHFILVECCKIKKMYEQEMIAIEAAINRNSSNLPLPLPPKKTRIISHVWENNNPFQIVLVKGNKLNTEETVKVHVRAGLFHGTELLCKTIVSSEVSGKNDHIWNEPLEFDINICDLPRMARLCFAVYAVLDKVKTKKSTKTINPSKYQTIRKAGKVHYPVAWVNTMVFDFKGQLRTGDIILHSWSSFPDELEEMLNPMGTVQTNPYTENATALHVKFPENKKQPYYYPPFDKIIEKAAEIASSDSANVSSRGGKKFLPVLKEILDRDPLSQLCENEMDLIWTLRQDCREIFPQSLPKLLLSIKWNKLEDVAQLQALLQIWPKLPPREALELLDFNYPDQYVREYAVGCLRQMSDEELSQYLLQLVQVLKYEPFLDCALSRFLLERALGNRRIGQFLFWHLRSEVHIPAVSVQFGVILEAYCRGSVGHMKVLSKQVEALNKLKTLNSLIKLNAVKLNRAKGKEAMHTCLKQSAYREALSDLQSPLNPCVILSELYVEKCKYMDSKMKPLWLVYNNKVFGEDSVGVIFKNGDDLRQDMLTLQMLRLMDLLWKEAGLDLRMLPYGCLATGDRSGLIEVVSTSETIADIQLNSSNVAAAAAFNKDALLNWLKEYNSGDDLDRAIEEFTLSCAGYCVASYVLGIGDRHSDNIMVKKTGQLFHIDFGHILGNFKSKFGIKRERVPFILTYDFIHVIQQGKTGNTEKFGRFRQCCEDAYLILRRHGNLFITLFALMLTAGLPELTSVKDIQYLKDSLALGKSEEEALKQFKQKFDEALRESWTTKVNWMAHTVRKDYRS
T2 sequence (P27986 whole entry partner): as the sequence (P27986 whole entry partner) above
T1 sequence (P48736 whole entry): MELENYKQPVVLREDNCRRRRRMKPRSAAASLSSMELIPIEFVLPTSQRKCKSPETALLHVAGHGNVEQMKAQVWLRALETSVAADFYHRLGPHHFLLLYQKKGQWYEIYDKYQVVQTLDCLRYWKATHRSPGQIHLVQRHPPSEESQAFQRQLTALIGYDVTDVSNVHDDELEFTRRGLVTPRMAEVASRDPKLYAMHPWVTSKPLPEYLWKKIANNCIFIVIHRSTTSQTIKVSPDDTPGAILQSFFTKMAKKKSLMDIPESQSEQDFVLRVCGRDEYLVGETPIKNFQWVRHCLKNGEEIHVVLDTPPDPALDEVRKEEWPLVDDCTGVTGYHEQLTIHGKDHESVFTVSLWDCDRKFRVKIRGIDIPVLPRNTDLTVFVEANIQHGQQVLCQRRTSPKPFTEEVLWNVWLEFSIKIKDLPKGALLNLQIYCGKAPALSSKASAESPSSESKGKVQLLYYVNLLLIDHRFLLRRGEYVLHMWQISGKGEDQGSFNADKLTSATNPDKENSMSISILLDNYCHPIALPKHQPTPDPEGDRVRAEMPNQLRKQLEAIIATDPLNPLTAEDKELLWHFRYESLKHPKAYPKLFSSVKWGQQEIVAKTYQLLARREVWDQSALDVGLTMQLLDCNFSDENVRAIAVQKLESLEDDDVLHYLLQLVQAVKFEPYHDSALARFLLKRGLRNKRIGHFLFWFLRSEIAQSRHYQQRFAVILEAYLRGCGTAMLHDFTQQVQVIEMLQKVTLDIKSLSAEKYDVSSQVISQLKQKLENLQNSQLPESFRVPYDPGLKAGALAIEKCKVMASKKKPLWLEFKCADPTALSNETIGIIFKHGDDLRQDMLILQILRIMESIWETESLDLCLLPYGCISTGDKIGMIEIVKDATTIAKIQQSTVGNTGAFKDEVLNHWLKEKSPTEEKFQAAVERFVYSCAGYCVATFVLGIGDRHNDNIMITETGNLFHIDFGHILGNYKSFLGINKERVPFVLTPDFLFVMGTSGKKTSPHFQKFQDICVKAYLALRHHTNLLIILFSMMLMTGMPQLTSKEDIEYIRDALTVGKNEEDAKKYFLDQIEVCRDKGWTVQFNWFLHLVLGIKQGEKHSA

On to `C[C@H](Nc1ncnc2[nH]cnc12)c1cc2cccc(-c3cccnc3)c2c(Cl)n1` [Compound 192], for which the pIC50 on PI3Kγ is > 6.00; on PI3Kβ it was < 5.00; at PI3Kδ, > 7.00; on PI3Kα it was < 5.00; in the data set on Balb/c splenic B cells, > 6.00.
As for `C[C@H](Nc1ncnc2[nH]cc(C(N)=O)c12)c1cc2cccc(Cl)c2c(C(=O)N2CCOCC2)n1` [Compound 204], the pIC50 is > 7.00 at PI3Kγ; > 5.00 on PI3Kβ; > 7.00 at PI3Kδ; > 5.00 on PI3Kα; > 7.00 in the data set on Balb/c splenic B cells.
As to `C[C@H](Nc1ncnc2[nH]cc(C(N)=O)c12)c1cc2cccc(Cl)c2c(C(=O)N2C3CCC2COC3)n1` [Compound 207], the pIC50 was > 7.00 on PI3Kγ; > 5.00 on PI3Kβ; > 7.00 at PI3Kδ; > 5.00 at PI3Kα; > 7.00 in the data set on Balb/c splenic B cells.
On to `C[C@H](Nc1ncnc2[nH]cc(F)c12)c1cc2cccc(Cl)c2c(C(=O)N2C3CCC2COC3)n1` [Compound 208], for which the pIC50 on PI3Kγ is > 6.00; on PI3Kβ, > 5.00; on PI3Kδ, > 7.00; on PI3Kα it was > 5.00; in the data set with Balb/c splenic B cells, > 7.00.
With `CCN1CCC(NC(=O)c2nc([C@H](C)Nc3ncnc4scnc34)cc3cccc(Cl)c23)CC1` [Compound 212], the pIC50 is > 5.00 on PI3Kγ; > 5.00 on PI3Kβ; > 7.00 on PI3Kδ; > 5.00 at PI3Kα; > 7.00 in the data set on Balb/c splenic B cells.
`C[C@H](Nc1ncnc2scnc12)c1cc2cccc(Cl)c2c(C(=O)NC2CCCC2)n1` [Compound 213]: the pIC50 is > 5.00 at PI3Kγ; < 5.00 on PI3Kβ; > 7.00 on PI3Kδ; > 5.00 at PI3Kα; > 7.00 in the data set on Balb/c splenic B cells.
For `C[C@H](Nc1ncnc2scnc12)c1cc2cccc(Cl)c2c(C(=O)NC2CCC(O)CC2)n1` (stereo partly shown) [Compound 214], the pIC50 was > 5.00 on PI3Kγ; < 5.00 on PI3Kβ; > 7.00 at PI3Kδ; > 5.00 at PI3Kα; > 7.00 in the data set with Balb/c splenic B cells.
Turning to `C[C@H](Nc1ncnc2scnc12)c1cc2cccc(Cl)c2c(C(=O)N2CCS(=O)(=O)CC2)n1` [Compound 220], the pIC50 on PI3Kγ is > 6.00; on PI3Kβ it was > 5.00; on PI3Kδ, > 7.00; at PI3Kα, < 5.00; in the data set with Balb/c splenic B cells, > 7.00.
Regarding `C[C@H](Nc1ncnc2scnc12)c1cc2cccc(Cl)c2c(C(=O)N2CCC(F)(F)CC2)n1` [Compound 228], the pIC50 on PI3Kγ was > 5.00; at PI3Kβ, > 5.00; on PI3Kδ, > 7.00; on PI3Kα it was > 5.00; in the data set with Balb/c splenic B cells it was > 7.00.
On to `C[C@H](Nc1ncnc2scnc12)c1cc2cccc(Cl)c2c(C(=O)N2CCOC[C@@H]2C)n1` [Compound 232], for which the pIC50 was > 5.00 at PI3Kγ; > 5.00 on PI3Kβ; > 7.00 at PI3Kδ; > 5.00 at PI3Kα; > 7.00 in the data set with Balb/c splenic B cells.
As to `C[C@H](Nc1ncnc2scnc12)c1cc2cccc(Cl)c2c(C(=O)N2CCC(O)CC2)n1` [Compound 234], the pIC50 at PI3Kγ is > 5.00; on PI3Kβ, > 5.00; on PI3Kδ, > 7.00; on PI3Kα it was > 5.00; with Balb/c splenic B cells, > 7.00.
For `C[C@H](Nc1nc(N)nc2cccnc12)c1cc2cccc(Cl)c2c(C(=O)N2CCOCC2)n1` [Compound 238], the pIC50 at PI3Kγ is > 7.00; on PI3Kβ, > 5.00; at PI3Kδ, > 7.00; on PI3Kα, < 5.00; with Balb/c splenic B cells it was > 7.00.
For the compound `C[C@H](Nc1ncnc2[nH]cnc12)c1cc2cccc(Cl)c2c(-c2cc(CO)on2)n1` [Compound 242], the pIC50 at PI3Kγ is > 6.00; at PI3Kβ it was > 6.00; on PI3Kδ, > 7.00; on PI3Kα, > 5.00; in the data set with Balb/c splenic B cells, > 7.00.
In the case of `C[C@H](Nc1ncnc2cccnc12)c1cc2ccccc2c(C(=O)N2CCOCC2)n1` [Compound 247], the pIC50 on PI3Kγ is < 5.00; on PI3Kβ, < 5.00; at PI3Kδ, > 7.00; at PI3Kα, < 5.00; in the data set on Balb/c splenic B cells, > 6.00.
For `C[C@H](Nc1ncnc2cccnc12)c1cc2cccc(Cl)c2c(C(=O)N2CCOC[C@@H]2C)n1` [Compound 248], the pIC50 on PI3Kγ is > 6.00; at PI3Kβ, > 5.00; at PI3Kδ, > 7.00; at PI3Kα, > 5.00; in the data set with Balb/c splenic B cells, > 7.00.
Regarding `CO[C@H]1C[C@@H]2CC[C@@H](C)[C@@](O)(O2)C(=O)C(=O)N2CCCC[C@H]2C(=O)O[C@H]([C@H](C)C[C@@H]2CC[C@@H](OCCO)[C@H](OC)C2)CC(=O)[C@H](C)/C=C(\C)[C@@H](O)[C@@H](OC)C(=O)[C@H](C)C[C@H](C)/C=C/C=C/C=C/1C` [RAD001, everolimus], in the data set with lupus symptoms, the lupus symptoms result is “ameliorate lupus symptoms”.
Regarding `O=C(O)CCCc1ccc(N(CCCl)CCCl)cc1` [chlorambucil], in data set [1], the chemical stability entry is on record as “largely hydrolyzed over the course of 24 hours”.
As to `CC(C)[N+](C)(CCOC(=O)C1c2ccccc2Oc2ccccc21)C(C)C` [propantheline], the plasma stability result in data set [2] is on record as “intermediate plasma stability”.
On to `CCCOc1cc(N)ccc1C(=O)OCCN(CC)CC` [propoxycaine], for which the plasma stability entry in data set [2] was “low plasma stability”.

What is called pIC50 is −log10 of the IC50, conventionally taken in molar units.

These data come from US8901133B2, “Heterocyclic compounds and uses thereof” (Infinity Pharmaceuticals, Inc., priority 2010, dated 2014).
